Results as given in ChEMBL document CHEMBL1201862, “PubChem BioAssay data set” (2004).
Active and inactive are the calls of the source.

How the values were obtained:
[1] = molecular target: Neurotensin receptor type 1 (Homo sapiens, UniProt P30989); assay type: functional;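 note: Image-based confirmatory dose-response assay measuring agonist activity at NTR1; NTR1-expressing U2OS osteosarcoma cells imaged for beta-arrestin GFP spot formation; agonist potency where compounds increase beta-arrestin recruitment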
[2] = molecular target: T1, Replicative DNA helicase DnaB (Mycobacterium tuberculosis, UniProt P9WMR3); assay: DnaB intein splicing inhibitors, dose response, biochemical, cell-free fluorescence (AID 449749); assay type: functional
T1 sequence (P9WMR3 whole entry): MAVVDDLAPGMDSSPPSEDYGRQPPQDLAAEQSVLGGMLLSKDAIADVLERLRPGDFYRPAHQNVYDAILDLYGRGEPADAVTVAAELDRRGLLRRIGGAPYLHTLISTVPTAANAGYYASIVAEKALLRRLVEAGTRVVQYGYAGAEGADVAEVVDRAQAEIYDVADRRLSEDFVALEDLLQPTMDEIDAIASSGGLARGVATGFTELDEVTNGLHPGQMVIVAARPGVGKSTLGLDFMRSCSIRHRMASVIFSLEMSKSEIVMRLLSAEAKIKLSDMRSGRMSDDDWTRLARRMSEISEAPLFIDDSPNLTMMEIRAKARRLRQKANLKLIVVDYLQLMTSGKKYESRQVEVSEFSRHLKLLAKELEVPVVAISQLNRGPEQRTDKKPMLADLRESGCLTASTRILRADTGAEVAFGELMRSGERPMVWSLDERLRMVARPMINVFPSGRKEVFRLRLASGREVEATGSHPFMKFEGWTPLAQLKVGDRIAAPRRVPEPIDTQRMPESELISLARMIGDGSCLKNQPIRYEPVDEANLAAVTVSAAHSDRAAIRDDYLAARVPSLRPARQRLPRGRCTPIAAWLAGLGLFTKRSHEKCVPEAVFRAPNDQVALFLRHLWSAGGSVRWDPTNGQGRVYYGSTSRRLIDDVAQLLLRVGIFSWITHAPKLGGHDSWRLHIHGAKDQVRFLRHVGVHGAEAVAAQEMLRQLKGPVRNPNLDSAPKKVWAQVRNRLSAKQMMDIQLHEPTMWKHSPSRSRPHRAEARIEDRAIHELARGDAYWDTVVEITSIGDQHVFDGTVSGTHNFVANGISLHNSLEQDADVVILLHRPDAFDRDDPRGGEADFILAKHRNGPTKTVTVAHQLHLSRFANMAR

[3] = Luminescence Cell-Based Dose Retest to Confirm Inhibitors of Cancer Stem Cells. [Related pubchem assays (depositor defined):AID2717, AID2721]; assay type: functional; settings: Homo sapiens
Protein RecA = molecular target: T2, Protein RecA (Mycobacterium tuberculosis, UniProt P9WHJ3); assay: Fluorescence Cell-Free Homogeneous Dose Retest to Identify Inhibitors of RecA-Intein Splicing Activity. [Related pubchem assays (depositor defined):AID2097, AID2223, AID489010, AID492950]; assay type: functional
T2 sequence (P9WHJ3 whole entry): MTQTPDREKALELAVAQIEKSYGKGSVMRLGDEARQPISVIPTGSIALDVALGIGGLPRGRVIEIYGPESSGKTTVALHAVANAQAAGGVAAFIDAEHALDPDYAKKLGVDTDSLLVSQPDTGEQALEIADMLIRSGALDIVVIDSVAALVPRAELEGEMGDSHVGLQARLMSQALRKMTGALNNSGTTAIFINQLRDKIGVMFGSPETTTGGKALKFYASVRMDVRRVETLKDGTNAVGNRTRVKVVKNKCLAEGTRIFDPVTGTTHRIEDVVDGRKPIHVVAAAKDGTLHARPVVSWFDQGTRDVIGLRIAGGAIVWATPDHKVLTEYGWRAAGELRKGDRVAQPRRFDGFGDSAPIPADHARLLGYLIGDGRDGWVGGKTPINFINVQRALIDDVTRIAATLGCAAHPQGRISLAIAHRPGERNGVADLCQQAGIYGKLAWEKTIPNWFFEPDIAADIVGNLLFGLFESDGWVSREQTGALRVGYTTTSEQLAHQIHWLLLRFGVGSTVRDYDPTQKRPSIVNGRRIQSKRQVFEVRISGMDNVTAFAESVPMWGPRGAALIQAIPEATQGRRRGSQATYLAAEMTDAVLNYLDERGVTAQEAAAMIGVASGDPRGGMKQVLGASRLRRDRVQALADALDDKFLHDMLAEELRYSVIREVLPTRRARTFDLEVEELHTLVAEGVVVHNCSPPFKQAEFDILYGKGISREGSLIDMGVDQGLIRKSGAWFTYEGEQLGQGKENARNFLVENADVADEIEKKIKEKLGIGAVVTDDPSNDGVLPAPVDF

Nonstructural protein 1 = Nonstructural protein 1 (Influenza A virus, UniProt Q194T2); assay type: functional, Influenza A virus (A/California/07/2009(H1N1))
[4] = molecular target: Multidrug resistance protein CDR2 (Candida albicans (strain SC5314 / ATCC MYA-2876) (Yeast), UniProt P78595); assay: inhibition of Nile Red efflux via Candida CDR2 – S. cerevisiae AD1-8u, singleplex, Cherry Pick1 hits, dose response (AID 588604); assay type: functional
Multidrug resistance protein CDR2, sequence (P78595 whole entry): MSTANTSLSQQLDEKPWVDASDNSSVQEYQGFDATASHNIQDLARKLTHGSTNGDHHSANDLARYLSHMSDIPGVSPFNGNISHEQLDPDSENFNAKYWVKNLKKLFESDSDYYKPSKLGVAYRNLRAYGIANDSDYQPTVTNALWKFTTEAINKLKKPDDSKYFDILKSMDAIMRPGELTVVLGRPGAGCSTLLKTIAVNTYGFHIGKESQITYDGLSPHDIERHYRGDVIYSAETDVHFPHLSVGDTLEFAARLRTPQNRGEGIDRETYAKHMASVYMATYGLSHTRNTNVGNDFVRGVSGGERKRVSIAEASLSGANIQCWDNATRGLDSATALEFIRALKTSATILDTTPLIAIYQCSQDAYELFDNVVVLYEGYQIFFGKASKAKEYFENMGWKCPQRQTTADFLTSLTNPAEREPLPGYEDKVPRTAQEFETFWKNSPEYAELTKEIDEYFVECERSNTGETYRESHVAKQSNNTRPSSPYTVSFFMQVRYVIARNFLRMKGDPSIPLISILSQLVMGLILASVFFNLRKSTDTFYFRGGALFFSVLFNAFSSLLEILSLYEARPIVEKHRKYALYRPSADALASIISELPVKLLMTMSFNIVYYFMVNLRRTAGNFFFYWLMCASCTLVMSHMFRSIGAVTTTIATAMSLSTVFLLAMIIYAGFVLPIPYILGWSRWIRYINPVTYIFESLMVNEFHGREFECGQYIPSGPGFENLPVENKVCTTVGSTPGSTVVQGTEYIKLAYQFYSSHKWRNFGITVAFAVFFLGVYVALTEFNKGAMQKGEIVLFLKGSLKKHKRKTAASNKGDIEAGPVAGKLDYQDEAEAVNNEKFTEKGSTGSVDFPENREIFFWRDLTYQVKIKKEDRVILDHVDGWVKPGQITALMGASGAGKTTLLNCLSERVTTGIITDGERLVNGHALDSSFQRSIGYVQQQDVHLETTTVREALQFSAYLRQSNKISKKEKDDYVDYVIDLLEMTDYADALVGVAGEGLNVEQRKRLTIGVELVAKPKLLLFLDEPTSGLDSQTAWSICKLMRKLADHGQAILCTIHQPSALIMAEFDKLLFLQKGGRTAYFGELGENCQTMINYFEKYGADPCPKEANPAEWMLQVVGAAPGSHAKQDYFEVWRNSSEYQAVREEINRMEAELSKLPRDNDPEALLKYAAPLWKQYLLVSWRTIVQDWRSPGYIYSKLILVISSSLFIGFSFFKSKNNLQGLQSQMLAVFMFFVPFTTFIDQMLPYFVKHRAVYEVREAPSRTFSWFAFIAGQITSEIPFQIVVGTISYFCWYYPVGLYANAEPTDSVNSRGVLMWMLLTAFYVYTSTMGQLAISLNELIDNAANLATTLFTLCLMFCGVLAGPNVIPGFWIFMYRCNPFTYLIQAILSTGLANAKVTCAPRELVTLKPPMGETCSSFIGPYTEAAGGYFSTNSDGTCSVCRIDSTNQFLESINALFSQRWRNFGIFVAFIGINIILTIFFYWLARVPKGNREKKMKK

Nonstructural protein 1, sequence (Q194T2 whole entry): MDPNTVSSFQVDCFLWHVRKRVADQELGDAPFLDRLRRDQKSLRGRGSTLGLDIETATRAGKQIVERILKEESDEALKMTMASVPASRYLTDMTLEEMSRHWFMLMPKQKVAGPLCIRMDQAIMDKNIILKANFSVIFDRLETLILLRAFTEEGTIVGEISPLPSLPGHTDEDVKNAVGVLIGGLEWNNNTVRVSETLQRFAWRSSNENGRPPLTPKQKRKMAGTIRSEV
Neurotensin receptor type 1, sequence (P30989 whole entry): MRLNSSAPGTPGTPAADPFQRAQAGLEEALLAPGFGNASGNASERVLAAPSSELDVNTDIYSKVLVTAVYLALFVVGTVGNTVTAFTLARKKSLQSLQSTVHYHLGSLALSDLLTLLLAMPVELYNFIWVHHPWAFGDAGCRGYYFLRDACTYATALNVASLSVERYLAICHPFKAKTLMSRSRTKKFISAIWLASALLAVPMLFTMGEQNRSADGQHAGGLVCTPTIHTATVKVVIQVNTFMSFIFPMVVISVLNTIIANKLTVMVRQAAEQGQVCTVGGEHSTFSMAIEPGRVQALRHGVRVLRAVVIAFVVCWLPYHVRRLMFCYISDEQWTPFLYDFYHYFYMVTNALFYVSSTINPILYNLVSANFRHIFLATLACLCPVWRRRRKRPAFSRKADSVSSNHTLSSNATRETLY

CCCCCc1cc(=O)oc2c(C(CCN3CCCC(C)C3)c3ccc(N(C)C)cc3)c(OC)cc(OC)c12 (stereo unspecified)
active: EC50 [1] 17.7 µM | AC50 [2] 8.48 µM | AC50 [3] 5.3 µM | EC50 (Protein RecA) 8.08 µM | IC50 (Nonstructural protein 1) 5.48 µM | EC50 [4] 25.4 µM
